Assay results taken from ChEMBL document CHEMBL1133851, “Novel spermine-amino acid conjugates and basic tripeptides enhance cleavage of the hairpin ribozyme at low magnesium ion concentration” (Bioorg Med Chem Lett, 2001).
Where a SMILES comes first, the peptide text is derived from it. [ ]: non-standard residue; d: D form. ξ: configuration not given here. Dab = NCC[C@H](N)C(=O)O; Dap = NC[C@H](N)C(=O)O; ξDab = NCCC(N)C(=O)O; ξDap = NCC(N)C(=O)O

Assays:
Hairpin ribozyme RNA [1] = test system: Hairpin ribozyme RNA
Description: Cleavage rate against hairpin ribozyme at 2 mM, in presence of 0.5 uM magnesium ions

Hairpin ribozyme RNA [2] = test system: Hairpin ribozyme RNA; remark: listed apart in the source
Description: Cleavage rate against hairpin ribozyme at 5 mM with 0.5 uM magnesium ions

NC[C@@H](N)C(=O)O
K obs (Hairpin ribozyme RNA [1]): 0.02
K obs (Hairpin ribozyme RNA [2]): 0.022

NCCCC[C@@H](N)C(=O)O
K obs (Hairpin ribozyme RNA [1]): 0.004
K obs (Hairpin ribozyme RNA [2]): 0.026

NCC(NC(=O)[C@@H](N)CN)C(=O)O (some centres not stated) (H-[Dap]-[ξDap]-OH)
K obs (Hairpin ribozyme RNA [1]): 0.024

NCCC[C@@H](N)C(=O)O
K obs (Hairpin ribozyme RNA [1]): 0.0086
K obs (Hairpin ribozyme RNA [2]): 0.034

NCCC(=O)O
K obs (Hairpin ribozyme RNA [1]): 0.018
K obs (Hairpin ribozyme RNA [2]): 0.03

NCCCC(=O)O
K obs (Hairpin ribozyme RNA [1]): 0.0088
K obs (Hairpin ribozyme RNA [2]): 0.023

N=C(N)NCCC[C@H](N)C(=O)O
K obs (Hairpin ribozyme RNA [1]): 0.016
K obs (Hairpin ribozyme RNA [2]): 0.034

NCCC(NC(=O)[C@@H](N)CN)C(=O)O (some centres not stated) (H-[Dap]-[ξDab]-OH)
K obs (Hairpin ribozyme RNA [1]): 0.026

NCCC(NC(=O)[C@@H](N)CCN)C(=O)O (some centres not stated) (H-[Dab]-[ξDab]-OH)
K obs (Hairpin ribozyme RNA [1]): 0.021

NC[C@H](N)C(=O)O
K obs (Hairpin ribozyme RNA [1]): 0.061
K obs (Hairpin ribozyme RNA [2]): 0.045

NCCCNCCCCNCCCN
K obs (Hairpin ribozyme RNA [1]): 0.073
K obs (Hairpin ribozyme RNA [2]): 0.065

NCC(=O)O
K obs (Hairpin ribozyme RNA [1]): 0.017
K obs (Hairpin ribozyme RNA [2]): 0.03

N[C@H](Cc1c[nH]cn1)C(=O)O
K obs (Hairpin ribozyme RNA [1]): 0.0085
K obs (Hairpin ribozyme RNA [2]): 0.026

NCCCC[C@H](N)C(=O)O
K obs (Hairpin ribozyme RNA [1]): 0.016
K obs (Hairpin ribozyme RNA [2]): 0.013

NCC[C@@H](N)C(=O)O
K obs (Hairpin ribozyme RNA [1]): 0.023
K obs (Hairpin ribozyme RNA [2]): 0.027

N[C@@H](Cc1c[nH]cn1)C(=O)O
K obs (Hairpin ribozyme RNA [1]): 0.037
K obs (Hairpin ribozyme RNA [2]): 0.013

NCC[C@H](N)C(=O)O
K obs (Hairpin ribozyme RNA [1]): 0.085
K obs (Hairpin ribozyme RNA [2]): 0.08

NCC[C@H](N)C(=O)NC(CN)C(=O)O (some centres not stated) (H-[Dab]-[ξDap]-OH)
K obs (Hairpin ribozyme RNA [1]): 0.02
